Values joined by “and” are separate entries in the source; they are usually repeats but may differ in a detail not shown here. Equal entries are not always repeated. Where two headings read alike, the source gives them in different places. Positions of bridges follow the written chain, without caps; N, C: chain ends. Residues, ends and D or L forms follow the SMILES beside them.
Columns and labels:
S. aureus agr-II = S. aureus agr-II (Staphylococcus aureus, UniProt O33587); assay: cell-based
Summary of the method: (§1)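 Reporter strains, with YFP (S. aureus) or sGFP (S. epidermidis) under agr P3, were diluted 1:100 from overnight TSB cultures with antibiotic and exposed to peptides for 22–24 h at 37°C, shaking. Background-subtracted fluorescence was normalized to OD600 and expressed relative to peptide-free control wells; IC50 came from variable-slope non-linear regression.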

S. lugdunensis agr-I = S. lugdunensis agr-I (Staphylococcus lugdunensis, UniProt Q8VSW5); assay: cell-based; conditions: fluorescent reporter strain; peptides tested at 1000, 50, 2.5, 0.125 nM or in dose-response
Summary of the method: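 Staphylococcal agr reporters were grown with peptide for 22–24 h at 37°C. Background-corrected fluorescence per OD600 was expressed as a percentage of untreated control, and IC50 was obtained by variable-slope regression.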

S. aureus agr-IV = S. aureus agr-IV (Staphylococcus aureus, UniProt Q309Z2); assay: cell-based; assay type: cell-based; conditions: fluorescent reporter strain; peptides tested at 1000, 50, 2.5, 0.125 nM or in dose-response
Summary of the method: as §1

S. epidermidis agr-III = S. epidermidis agr-III (Staphylococcus epidermidis, UniProt Q8VSX2); assay: cell-based; assay type: cell-based
Summary of the method: as §1

SA AgrC-II [1] = target: T1, SA AgrC-II (Staphylococcus aureus, UniProt O33587); assay: β-Lactamase assay, reporter strain RN10829 (P2-agrA:P3-blaZ) with pagrC-II; assay type: cell-based; conditions: 100 nM cognate AIP; ± SEM; -b = no inhibition recorded at the highest AIP concentration tested; -a = only partial inhibition observed; this study (curves in Fig. S20)
Summary of the method: (§2)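 S. aureus RN10829 P2-agrA:P3-blaZ reporter carrying a plasmid for the matching wild-type AgrC, grown in TSB to OD600 0.35–0.40. Cells met peptides (10 μM–10 pM) plus cognate AIP at 100 nM for 1 h at 37°C, then nitrocefin (33.3 μg/mL) turnover was read at OD486 for 10 min; IC50 from linear rates.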

SA AgrC-III [2] = target: T2, SA AgrC-III (Staphylococcus aureus, UniProt O33590); assay: β-Lactamase assay, reporter strain RN10829 (P2-agrA:P3-blaZ) with pagrC-III; assay type: cell-based
Summary of the method: as §2

SA AgrC-IV [3] = target: T3, SA AgrC-IV (Staphylococcus aureus, UniProt Q309Z2); assay: β-Lactamase assay, reporter strain RN10829 (P2-agrA:P3-blaZ) with pagrC-IV; assay type: cell-based; conditions: 100 nM cognate AIP; ± SEM; -b = no inhibition recorded at the highest AIP concentration tested; -a = only partial inhibition observed; this study (curves in Fig. S22)
Summary of the method: as §2

S. aureus (SA) agr-II [4] = conditions: fluorescence; ref (10); cited from earlier work
S. aureus (SA) agr-III [5] = conditions: fluorescence, cited from earlier work
S. aureus (SA) agr-IV [6] = conditions: fluorescence, cited from earlier work
S. aureus (SA) agr-I [7] = test system: S. aureus (SA) agr-I; set-up: method as in ref (9) (a number printed in a supplementary file, which may have a reference list of its own: not looked up in the article's list); conditions: HPLC d-toxin; ref (9); cited from earlier work
S. aureus (SA) agr-II [8] = test system: S. aureus (SA) agr-II; set-up: method as in ref (9) (a number printed in a supplementary file, which may have a reference list of its own: not looked up in the article's list); conditions: HPLC d-toxin; ref (9); cited from earlier work
S. aureus (SA) agr-III [9] = test system: S. aureus (SA) agr-III; set-up: method as in ref (9) (a number printed in a supplementary file, which may have a reference list of its own: not looked up in the article's list); conditions: HPLC d-toxin; ref (9); cited from earlier work
S. aureus (SA) agr-IV [10] = test system: S. aureus (SA) agr-IV; set-up: method as in ref (9) (a number printed in a supplementary file, which may have a reference list of its own: not looked up in the article's list); conditions: HPLC d-toxin, ref (9); cited from earlier work
[11] = test system: S. epidermidis (SE) agr-I; conditions: fluorescence, cited from earlier work
[12] = test system: S. epidermidis (SE) agr-II; conditions: fluorescence; from supernatant; ref (18); cited from earlier work
[13] = test system: S. epidermidis (SE) agr-III; conditions: fluorescence; from supernatant; ref (18); cited from earlier work
SA AgrC-I = SA AgrC-I (Staphylococcus aureus, UniProt O07911); conditions: 100 nM cognate AIP; ± SEM; -b = no inhibition recorded at the highest AIP concentration tested; determined previously; ref (1); read-out: IC50, SA AgrC-I, b-lactamase assay; cited from earlier work
SA AgrC-II [14] = target: T1, SA AgrC-II; conditions: ± SEM, determined previously, ref (1), cited from earlier work
SA AgrC-III [15] = target: T2, SA AgrC-III; conditions: ± SEM, determined previously, ref (1), cited from earlier work
SA AgrC-IV [16] = target: T3, SA AgrC-IV; conditions: 100 nM cognate AIP; ± SEM; -b = no inhibition recorded at the highest AIP concentration tested; determined previously; ref (1); read-out: IC50, SA AgrC-IV, b-lactamase assay; cited from earlier work
S. aureus (SA) agr-I [17] = conditions: b-lactamase, cited from earlier work
S. aureus (SA) agr-II [18] = conditions: b-lactamase, cited from earlier work
S. aureus (SA) agr-III [19] = conditions: b-lactamase, cited from earlier work
S. aureus (SA) agr-IV [20] = conditions: b-lactamase; ref (4); cited from earlier work
S. aureus (SA) agr-I [21] = conditions: fluorescence; ref (5); cited from earlier work
S. aureus (SA) agr-I [22] = test system: S. aureus (SA) agr-I; set-up: method as in ref (5) (a number printed in a supplementary file, which may have a reference list of its own: not looked up in the article's list); conditions: hemolysis; ref (5); cited from earlier work
S. aureus (SA) agr-III [23] = test system: S. aureus (SA) agr-III; set-up: method as in ref (5) (a number printed in a supplementary file, which may have a reference list of its own: not looked up in the article's list); conditions: hemolysis; ref (5); cited from earlier work
S. aureus (SA) agr-IV [24] = test system: S. aureus (SA) agr-IV; set-up: method as in ref (5) (a number printed in a supplementary file, which may have a reference list of its own: not looked up in the article's list); conditions: hemolysis; ref (5); cited from earlier work
[25] = test system: S. epidermidis (SE) agr-I; set-up: method as in ref (9) (a number printed in a supplementary file, which may have a reference list of its own: not looked up in the article's list); conditions: HPLC d-toxin, ref (9); cited from earlier work
S. aureus (SA) agr-II [26] = test system: S. aureus (SA) agr-II; set-up: method as in ref (5) (a number printed in a supplementary file, which may have a reference list of its own: not looked up in the article's list); conditions: hemolysis; ref (5); cited from earlier work

T3 sequence (Q309Z2 entry or part of it): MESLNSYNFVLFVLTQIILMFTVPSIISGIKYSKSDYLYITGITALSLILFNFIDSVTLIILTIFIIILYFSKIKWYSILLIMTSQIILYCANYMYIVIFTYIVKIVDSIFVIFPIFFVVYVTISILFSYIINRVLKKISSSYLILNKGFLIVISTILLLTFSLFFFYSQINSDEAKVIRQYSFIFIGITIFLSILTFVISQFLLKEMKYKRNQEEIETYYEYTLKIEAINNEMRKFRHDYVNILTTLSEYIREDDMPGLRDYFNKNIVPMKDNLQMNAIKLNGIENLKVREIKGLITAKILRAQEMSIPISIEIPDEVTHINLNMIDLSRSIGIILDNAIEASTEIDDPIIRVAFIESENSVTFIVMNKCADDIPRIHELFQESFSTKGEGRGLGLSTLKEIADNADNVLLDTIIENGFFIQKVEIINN
T2 sequence (O33590 entry or part of it): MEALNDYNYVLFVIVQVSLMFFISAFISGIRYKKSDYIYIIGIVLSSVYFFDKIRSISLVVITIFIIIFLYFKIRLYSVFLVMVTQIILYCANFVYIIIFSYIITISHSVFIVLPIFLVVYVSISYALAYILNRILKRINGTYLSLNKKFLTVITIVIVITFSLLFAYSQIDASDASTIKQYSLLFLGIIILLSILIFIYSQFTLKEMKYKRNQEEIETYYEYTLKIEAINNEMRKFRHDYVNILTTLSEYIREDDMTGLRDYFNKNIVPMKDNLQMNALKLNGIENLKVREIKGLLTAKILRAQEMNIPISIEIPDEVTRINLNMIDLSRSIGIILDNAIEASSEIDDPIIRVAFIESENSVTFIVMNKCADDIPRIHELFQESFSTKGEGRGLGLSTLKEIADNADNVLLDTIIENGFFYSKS
T1 sequence (O33587 entry or part of it): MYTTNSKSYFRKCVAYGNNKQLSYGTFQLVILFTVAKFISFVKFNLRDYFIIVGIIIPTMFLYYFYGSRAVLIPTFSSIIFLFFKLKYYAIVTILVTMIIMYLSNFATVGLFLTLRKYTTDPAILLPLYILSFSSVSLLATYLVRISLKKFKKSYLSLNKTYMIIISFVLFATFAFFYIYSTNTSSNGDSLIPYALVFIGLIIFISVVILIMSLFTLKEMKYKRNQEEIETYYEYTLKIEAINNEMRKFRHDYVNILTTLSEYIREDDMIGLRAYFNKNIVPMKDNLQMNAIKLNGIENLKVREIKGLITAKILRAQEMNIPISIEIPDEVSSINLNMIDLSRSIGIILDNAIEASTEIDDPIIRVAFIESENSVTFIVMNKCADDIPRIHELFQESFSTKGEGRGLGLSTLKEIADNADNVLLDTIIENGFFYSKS
SA AgrC-I, sequence (O07911 entry or part of it): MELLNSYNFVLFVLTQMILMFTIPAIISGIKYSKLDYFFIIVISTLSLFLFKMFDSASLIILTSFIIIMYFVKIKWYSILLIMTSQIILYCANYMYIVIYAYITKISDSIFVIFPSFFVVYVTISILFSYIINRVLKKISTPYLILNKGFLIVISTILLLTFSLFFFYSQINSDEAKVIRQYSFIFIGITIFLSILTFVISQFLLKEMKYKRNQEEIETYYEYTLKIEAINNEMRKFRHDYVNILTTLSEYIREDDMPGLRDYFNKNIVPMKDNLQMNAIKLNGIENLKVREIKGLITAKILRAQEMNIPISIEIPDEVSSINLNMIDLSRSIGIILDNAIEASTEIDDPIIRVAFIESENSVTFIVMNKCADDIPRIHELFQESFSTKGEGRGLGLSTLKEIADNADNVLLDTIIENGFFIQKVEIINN
S. epidermidis agr-III, sequence (Q8VSX2 entry or part of it): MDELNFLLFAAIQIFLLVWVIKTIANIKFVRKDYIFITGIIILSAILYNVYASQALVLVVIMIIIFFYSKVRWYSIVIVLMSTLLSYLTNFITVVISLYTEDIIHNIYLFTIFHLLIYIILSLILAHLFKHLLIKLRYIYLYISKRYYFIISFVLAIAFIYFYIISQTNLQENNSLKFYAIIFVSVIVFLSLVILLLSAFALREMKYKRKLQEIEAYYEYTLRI
S. aureus agr-IV, sequence (Q309Z2 entry or part of it): as the sequence (Q309Z2 entry or part of it) above
S. lugdunensis agr-I, sequence (Q8VSW5 entry or part of it): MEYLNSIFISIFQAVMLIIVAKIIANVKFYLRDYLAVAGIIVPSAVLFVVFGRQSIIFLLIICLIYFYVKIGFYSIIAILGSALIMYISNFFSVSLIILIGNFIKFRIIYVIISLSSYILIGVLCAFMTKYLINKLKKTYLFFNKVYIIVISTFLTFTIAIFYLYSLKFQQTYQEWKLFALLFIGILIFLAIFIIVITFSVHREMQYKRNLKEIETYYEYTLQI
S. aureus agr-II, sequence (O33587 entry or part of it): as the sequence (O33587 entry or part of it) above

## CC(C)[C@H](NC(=O)[C@H](CO)NC(=O)[C@@H](N)CC(=O)O)C(=O)N[C@H]1CSC(=O)[C@H](Cc2ccccc2)NC(=O)[C@H](Cc2ccc(O)cc2)NC(=O)[C@H](CO)NC(=O)[C@H](C)NC1=O [compound 5, S. epidermidis AIP-I] (H-DSVCASYF; thioester 4-C)
S. aureus agr-II
  IC50: 0.858 µM
S. lugdunensis agr-I
  QS interaction in words (inhibition / activation), S. lugdunensis agr-I: no effect at 1000 nM
S. aureus agr-IV
  QS interaction in words (inhibition / activation), S. aureus agr-IV: no effect at 1000 nM
S. epidermidis agr-III
  IC50: 0.0086 ± 0.0007 µM
SA AgrC-II [1]
  IC50, SA AgrC-II, b-lactamase assay: -b
SA AgrC-III [2]
  IC50: > 1 µM
SA AgrC-IV [3]
  IC50, SA AgrC-IV, b-lactamase assay: -b
S. aureus (SA) agr-II [4]
  IC50: > 1 µM
S. aureus (SA) agr-III [5]; ref (10)
  IC50: 0.013 µM
S. aureus (SA) agr-IV [6]; ref (10)
  IC50: > 1 µM
S. aureus (SA) agr-I [7]
  IC50: ~0.25 µM
S. aureus (SA) agr-II [8]
  IC50: 0.03 to 0.04 µM
S. aureus (SA) agr-III [9]
  IC50: ~0.01 µM
S. aureus (SA) agr-IV [10]
  inhibition at 1000 nM, SA agr-IV: no inhibition
[11]; from supernatant, ref (18)
  effect from supernatant (% inhibition, activation or no effect), SE agr-I: activation
[11]; ref (11)
  EC50: 0.196 µM
[12]
  effect from supernatant (% inhibition, activation or no effect), SE agr-II: ~ 90%
[13]
  effect from supernatant (% inhibition, activation or no effect), SE agr-III: ~ 90%

## S. aureus AIP-II [compound 2]
SA AgrC-I
  IC50: 0.11 ± 0.012 µM
SA AgrC-II [14]; read-out: EC50, SA AgrC-II, b-lactamase assay
  EC50: 0.0037 ± 0.0005 µM
SA AgrC-III [15]; 100 nM cognate AIP, -b = no inhibition recorded at the highest AIP concentration tested, read-out: IC50, SA AgrC-III, b-lactamase assay
  IC50: 0.04 ± 0.015 µM
SA AgrC-IV [16]
  IC50: 0.23 ± 0.019 µM
S. aureus (SA) agr-I [17]; ref (2)
  IC50: 0.0029 ± 0.0012 µM
S. aureus (SA) agr-I [17]; ref (3)
  IC50: 0.09 µM and 0.078 µM
S. aureus (SA) agr-I [17]; ref (4)
  IC50: 0.04 µM
S. aureus (SA) agr-I [17]; ref (8)
  IC50: 0.012 ± 0.0029 µM
S. aureus (SA) agr-II [18]; ref (3)
  EC50: 0.034 µM and 0.028 µM
S. aureus (SA) agr-II [18]; ref (4)
  EC50: 0.03 µM
S. aureus (SA) agr-II [18]; ref (7)
  EC50: 0.0409 µM
S. aureus (SA) agr-III [19]; ref (2)
  IC50: 0.0032 ± 0.0013 µM
S. aureus (SA) agr-III [19]; ref (4)
  IC50: 0.001 µM
S. aureus (SA) agr-IV [20]
  IC50: 0.086 µM
S. aureus (SA) agr-I [21]
  IC50: 0.00162 µM
S. aureus (SA) agr-III [5]; ref (5)
  IC50: 0.00053 µM
S. aureus (SA) agr-IV [6]; ref (5)
  IC50: 0.0004 µM
S. aureus (SA) agr-I [22]
  IC50: 0.00089 µM
S. aureus (SA) agr-III [23]
  IC50: 0.00359 µM
S. aureus (SA) agr-IV [24]
  IC50: 0.00119 µM
[11]; ref (11)
  IC50: 0.0629 µM
[25]
  inhibition at 1000 nM, SE agr-I: no inhibition

## S. aureus AIP-III [compound 3]
SA AgrC-I
  IC50: 0.12 ± 0.015 µM
SA AgrC-II [14]; 100 nM cognate AIP, -b = no inhibition recorded at the highest AIP concentration tested, read-out: IC50, SA AgrC-II, b-lactamase assay
  IC50: 0.15 ± 0.063 µM
SA AgrC-III [15]; read-out: EC50, SA AgrC-III, b-lactamase assay
  EC50: 0.011 ± 0.001 µM
SA AgrC-IV [16]
  IC50: > 1 µM
S. aureus (SA) agr-I [17]; ref (4)
  IC50: 0.07 µM
S. aureus (SA) agr-I [17]; ref (8)
  IC50: 0.008 ± 0.0011 µM
S. aureus (SA) agr-II [18]; ref (4)
  IC50: 0.006 µM
S. aureus (SA) agr-III [19]; ref (4)
  EC50: 0.026 µM
S. aureus (SA) agr-III [19]; ref (7)
  EC50: 0.406 µM
S. aureus (SA) agr-IV [20]
  IC50: 0.15 µM
S. aureus (SA) agr-I [21]
  IC50: 0.00505 µM
S. aureus (SA) agr-I [22]
  IC50: 0.00807 µM
S. aureus (SA) agr-II [26]
  IC50: 0.00046 µM
S. aureus (SA) agr-IV [24]
  IC50: 0.0238 µM
[11]; at 1000 nM, ref (11)
  inhibition at 1000 nM, SE agr-I: no inhibition
[25]
  inhibition at 1000 nM, SE agr-I: no inhibition
